Values quoted from earlier work, collected in PubChem BioAssay AID1259409 (Chemical Carcinogenesis Research Information System (CCRIS), 2018).

Tested on: rodent chemically induced tumor inhibition, incidence and multiplicity
Assay: CCRIS tumor inhibitor studies

CC1=C(/C=C/C(C)=C/C=C/C(C)=C\C(=O)O)C(C)(C)CCC1
tumour outcome (control, treated, inhibition, significance) (Carcinogen: AZOXYMETHANE, 25843-45-2, Dose [Inhibitor]: 50 MG/KG IN DIET DAILY FOR 26 WK STARTING SIMULTANEOUSLY WITH CARCINOGEN TREATMENT (STUDY DURATION: 26 WK), Route [Inhibitor]: ORAL, Species: RAT, Strain/Sex: SPRAGUE-DAWLEY/MALE, Target Tissue: Type of Lesion: SMALL INTESTINE: TUMOR, Dose [Carcinogen]: 8 MG/KG BW 1/WK FOR 8 WK, Promoter: NONE USED): 90%, 83%, 8%, not significant
tumour outcome (control, treated, inhibition, significance) (Carcinogen: BENZO[A]PYENE, 50-32-8, Dose [Inhibitor]: 17 NMOL 2/WK 0.5 HR BEFORE EACH PROMOTER APPLICATION FOR 24 WK STARTING 7 D AFTER CARCINOGEN APPLICATION (STUDY DURATION, Route [Inhibitor]: DERMAL, Species: MOUSE, Strain/Sex: SENCAR, Target Tissue: Type of Lesion: SKIN: PAPILLOMA, Dose [Carcinogen]: 400 NMOL ONCE, Promoter: ANTHRALIN, 1143-38-0): 73%, 83%, -14%, not significant
tumour outcome (control, treated, inhibition, significance) (Carcinogen: BENZO[A]PYENE, 50-32-8, Dose [Inhibitor]: 34 NMOL ONCE 0.5 HR BEFORE CARCINOGEN APPLICATION (STUDY DURATION: 25 WK), Route [Inhibitor]: DERMAL, Species: MOUSE, Strain/Sex: CD-1/FEMALE, Target Tissue: Type of Lesion: SKIN: PAPILLOMA, Dose [Carcinogen]: 200 NMOL IN 0.2 ML ACETONE ONCE 0.5 HR AFTER AGENT TREATMENT, Promoter: 12-O-TETRADECANOYLPHORBOL-13-ACETATE, 16561-29-8): 90%, 98%, -9%, not significant
tumour outcome (control, treated, inhibition, significance) (Carcinogen: BENZO[A]PYRENE, 50-32-8, Dose [Inhibitor]: 0, 240 MG/KG OF DIET FOR 6 WK (STUDY DURATION: 9 WK), Route [Inhibitor]: ORAL, Species: MOUSE, Strain/Sex: NIGP(S)/FEMALE, Target Tissue: Type of Lesion: LUNG: ADENOMA, Dose [Carcinogen]: 0.5 MG INJECTED IN THE SCAPULAR REGION OF NEWBORN MICE ONCE, Promoter: NONE USED): 35%, 55%, -57%, not calculated
tumour outcome (control, treated, inhibition, significance) (Carcinogen: BENZO[A]PYRENE, 50-32-8, Dose [Inhibitor]: 0, 240 MG/KG OF DIET FOR 6 WK (STUDY DURATION: 9 WK), Route [Inhibitor]: ORAL, Species: MOUSE, Strain/Sex: NIGP(S)/MALE, Target Tissue: Type of Lesion: LUNG: ADENOMA, Dose [Carcinogen]: 0.5 MG INJECTED IN THE SCAPULAR REGION OF NEWBORN MICE ONCE, Promoter: NONE USED): 48%, 42%, 13%, not calculated
tumour outcome (control, treated, inhibition, significance) (Carcinogen: N,N-DIMETHYLNITROSAMINE, 62-75-9, Dose [Inhibitor]: 240 MG/KG OF DIET DAILY FOR 3 WK STARTING 2 D AFTER CARCINOGEN TREATMENT AT 6 WK OF AGE AND THEN OBSERVED UNTIL DEATH (S, Route [Inhibitor]: ORAL, Species: RAT, Strain/Sex: WISTAR/FEMALE, Target Tissue: Type of Lesion: KIDNEY: MESENCHYMAL TUMOR, Dose [Carcinogen]: 40 MG/KG BW ONCE, Promoter: NONE USED): 22/27 (82%), 27/32 (84%), -2%, not significant
tumour outcome (control, treated, inhibition, significance) (Carcinogen: N,N-DIMETHYLNITROSAMINE, 62-75-9, Dose [Inhibitor]: 240 MG/KG OF DIET DAILY FOR 3 WK STARTING 2 D AFTER CARCINOGEN TREATMENT AT 6 WKOF AGE AND THEN OBSERVED UNTIL DEATH (ST, Route [Inhibitor]: ORAL, Species: RAT, Strain/Sex: WISTAR/FEMALE, Target Tissue: Type of Lesion: KIDNEY: EPITHELIAL TUMOR (ADENOMA, ADENOCARCINOMA), Dose [Carcinogen]: 40 MG/KG BW ONCE, Promoter: NONE USED): 13/27 (48%), 17/32 (53%), -10%, not significant
tumour outcome (control, treated, inhibition, significance) (Carcinogen: N,N-DIMETHYLNITROSAMINE, 62-75-9, Dose [Inhibitor]: 240 MG/KG OF DIET DAILY FOR 10 WK STARTING 2 D AFTER CARCINOGEN TREATMENT AT 6 WK OF AGE AND THEN OBSERVED UNTIL DEATH (, Route [Inhibitor]: ORAL, Species: RAT, Strain/Sex: WISTAR/FEMALE, Target Tissue: Type of Lesion: KIDNEY: EPITHELIAL TUMOR (ADENOMA, ADENOCARCINOMA), Dose [Carcinogen]: 40 MG/KG BW ONCE, Promoter: NONE USED): 13/27 (48%), 11/29 (38%), 21%, not significant
tumour outcome (control, treated, inhibition, significance) (Carcinogen: N,N-DIMETHYLNITROSAMINE, 62-75-9, Dose [Inhibitor]: 240 MG/KG OF DIET DAILY FOR 26 WK STARTING 2 D AFTER CARCINOGEN TREATMENT AT 6 WK OF AGE AND THEN OBSERVED UNTIL DEATH (, Route [Inhibitor]: ORAL, Species: RAT, Strain/Sex: WISTAR/FEMALE, Target Tissue: Type of Lesion: KIDNEY: EPITHELIAL TUMOR (ADENOMA, ADENOCARCINOMA), Dose [Carcinogen]: 40 MG/KG BW ONCE, Promoter: NONE USED): 13/27 (48%), 11/21 (52%), -8%, not significant
tumour outcome (control, treated, inhibition, significance) (Carcinogen: N,N-DIMETHYLNITROSAMINE, 62-75-9, Dose [Inhibitor]: 240 MG/KG OF DIET DAILY FOR 26 WK STARTING 2 D AFTER CARCINOGEN TREATMENT AT 6 WK OF AGE AND THEN OBSERVED UNTIL DEATH (, Route [Inhibitor]: ORAL, Species: RAT, Strain/Sex: WISTAR/FEMALE, Target Tissue: Type of Lesion: KIDNEY: MESENCHYMAL TUMOR, Dose [Carcinogen]: 40 MG/KG BW ONCE, Promoter: NONE USED): 22/27 (82%), 21/21 (100%), -22%, not significant
tumour outcome (control, treated, inhibition, significance) (Carcinogen: N-(4-(5-NITRO-2-FURYL)-2-THIAZOLYL)FORMAMIDE, 24554-26-5, Dose [Inhibitor]: 120 MG/KG DIET DAILY STARTING 1 WK AFTER COMPLETION OF CARCINOGEN TREATMENT AND CONTINUING UNTIL END OF STUDY (STUDY DUR, Route [Inhibitor]: ORAL, Species: RAT, Strain/Sex: F344/FEMALE, Target Tissue: Type of Lesion: URINARY BLADDER: CARCINOMA, Dose [Carcinogen]: 2 G/KG DIET DAILY FOR 10 WK, Promoter: NONE USED): 36/100 (36%), 42/100 (42%), -17%, p 0.135
